Source: patent publication US10981932B2, “Macrocyclic indole derivatives” (Bayer Aktiengesellschaft, priority 2016, dated 2021)
“And” between values parts separate entries of the source, which are not always exact repeats. Equal entries are not always repeated. Structures can show the parent of a compound that is named as a salt. Where two headings read alike, the source gives them in different places.

Tests used:
[1] = target: MCL-1 (Homo sapiens, UniProt Q07820); experiment: Protein-protein interaction assay MCL-1/Noxa BH3 peptide (MCL-1 assay), TR-FRET; format: binding; conditions: MBP-MCL-1 / Noxa BH3-derived peptide, median
Chain of MCL-1 (Q07820 whole entry): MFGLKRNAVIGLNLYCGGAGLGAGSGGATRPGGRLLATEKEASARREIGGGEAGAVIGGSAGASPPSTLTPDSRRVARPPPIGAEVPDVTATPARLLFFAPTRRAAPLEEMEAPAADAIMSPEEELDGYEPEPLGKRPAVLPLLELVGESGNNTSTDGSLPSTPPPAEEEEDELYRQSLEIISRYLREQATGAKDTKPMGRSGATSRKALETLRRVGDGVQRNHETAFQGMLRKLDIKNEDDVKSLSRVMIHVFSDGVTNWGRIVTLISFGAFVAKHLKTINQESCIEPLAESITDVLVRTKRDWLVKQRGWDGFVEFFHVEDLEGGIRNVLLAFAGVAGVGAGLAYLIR
In short: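 MBP-MCL-1 (1 nM final) was preincubated 10 min at 22 °C with compounds (11 concentrations, 0.1 nM–20 μM, duplicates) in Tris pH 7 buffer with NaCl, KF, Tween-20, DTT and BGG. After 1 h at 22 °C in the dark plus overnight at 4 °C, anti-MBP Eu-cryptate/streptavidin-XL665 TR-FRET was read; IC50 came from a 4-parameter fit.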

[2] = system: SUDHL10; experiment: Induction of caspase-3/7 activity (Caspase-Glo 3/7), SUDHL10; format: cell-based; conditions: caspase-3/7 induction, SUDHL10 cells, 3 h treatment, median
In short: (§1)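 Caspase-Glo 3/7 luminescence measured after 3 h compound exposure at 37 °C in SUDHL10 and SUDHL5 cells. EC50 values come from background-corrected signals, with curve bottom set to 1 and plateau set to maximal induction by the reference compound.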

[3] = system: MV-4-11; experiment: Anti-proliferative effect (CellTiter-Glo, 72 h), MV-4-11; format: cell-based; conditions: MV-4-11 cells, median, read-out: IC50 antiproliferation assay MV-4-11 [M] (median)
In short: (§2)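 Anti-proliferative activity is derived from ATP-based luminescence (CellTiter-Glo) in cells exposed to compound for 72 h at 37 °C, set against a time zero plate read at seeding.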

[4] = system: SUDHL10; experiment: Induction of cytotoxicity (CellTiter-Glo, 5 h), SUDHL10
[5] = system: SUDHL5; experiment: Induction of caspase-3/7 activity (Caspase-Glo 3/7), SUDHL5; format: cell-based; conditions: caspase-3/7 induction, SUDHL5 cells, 3 h treatment, median
In short: as §1

[6] = system: A2780; experiment: Anti-proliferative effect (CellTiter-Glo, 72 h), A2780; format: cell-based; conditions: A2780 cells, median, read-out: IC50 antiproliferation assay A2780 [M] (median)
In short: as §2

[7] = system: SUDHL5; experiment: Anti-proliferative effect (CellTiter-Glo, 72 h), SUDHL5; format: cell-based; conditions: SUDHL5 cells, antiproliferation, median, read-out: Antiproli SUDHL5 [M] (median)
In short: as §2

[8] = system: SUDHL5; experiment: Induction of cytotoxicity (CellTiter-Glo, 5 h), SUDHL5
[9] = read-out: Cytotox SUDHL10 [M] (median), SUDHL10 cells, cytotoxicity induction, CellTiter-Glo, 5 h, median
[10] = read-out: Cytotox SUDHL5 [M] (median), SUDHL5 cells, cytotoxicity induction, CellTiter-Glo, 5 h, median
[11] = Homo sapiens, SU-DHL10, 5 h, read-out: Cytotox SUDHL10 [M] (median), SUDHL10 cells, cytotoxicity induction, CellTiter-Glo, 5 h, median
[12] = Homo sapiens, SU-DHL-5, 72 h, 72 h
[13] = Homo sapiens, SU-DHL-5, 5 h, read-out: Cytotox SUDHL5 [M] (median), SUDHL5 cells, cytotoxicity induction, CellTiter-Glo, 5 h, median
[14] = read-out: Cytotox SUDHL10 [M] (median), SUDHL10 cells, cytotoxicity induction, CellTiter-Glo, 5 h incubation, median
[15] = read-out: Cytotox SUDHL5 [M] (median), SUDHL5 cells, cytotoxicity induction, CellTiter-Glo, 5 h incubation, median

Row | SMILES | IC50 [1] | EC50 [2] | IC50 [3] | IC50 [4, 9] | EC50 [5] | IC50 [6] | IC50 ([7]; 72 h) | IC50 [8, 10] | EC50 ([2]; Homo sapiens, SU-DHL10, 3 h) | IC50 [4, 11] | IC50 ([6]; Homo sapiens, A2780, 72 h) | IC50 [7, 12] | EC50 ([5]; Homo sapiens, SU-DHL-5, 3 h) | IC50 [8, 13] | IC50 ([3]; Homo sapiens, MV4-11, 72 h) | IC50 [4, 14] | IC50 ([7]; 72 h incubation) | IC50 [8, 15]
1 | Cc1c2c(nn1C)COCCCCn1c(C(=O)O)c(CCCOc3cccc4cc(F)ccc34)c3cccc-2c31 (single isomer, unassigned; enantiomer 1) [Example 303, (−)-7-{3-((6-fluoronaphthalen-1-yl)oxypropyl}-2,3-dimethyl-2,10,11,12,13,15-hexahydropyrazolo[4′,3′:9,10][1,6]oxazacycloundecino[8,7,6-hi]indole-8-carboxylic Acid (Enantiomer 1)] | 0.0268 µM | > 33 µM | 2.61e-05 M | > 3.3e-05 M | > 33 µM | 2.4e-05 M | 6.97e-06 M | > 3.3e-05 M |  |  |  |  |  |  |  |  |  | 
2 | Cn1nc(COCc2ccc(C#N)cc2)c2c1COCCCCn1c(C(=O)O)c(CCCOc3cccc4ccccc34)c3cccc-2c31 (single isomer, unassigned; enantiomer 1) [Example 347, 3-({[(4-cyanobenzyl)oxy]methyl}-1-methyl-7-[3-(naphthalen-1-yloxy)propyl]-1,10,11,12,13,15-hexahydropyrazolo[4′,3′:9,101][1,6]oxazacycloundecino[8,7,6-hi]indole-8-carboxylic acid-N-ethylethanamine Salt (Enantiomer 1)] | 0.343 µM |  | 1.2e-05 M |  | > 33 µM |  |  | > 3.3e-05 M | > 33 µM | > 3.3e-05 M | 9.45e-06 M | 4.2e-06 M |  |  |  |  |  | 
3 | COc1ccc2c(CCCOc3cccc4ccccc34)c(C(=O)O)n3c2c1-c1c(nn(C)c1C)COCCCC3 (single isomer, unassigned; enantiomer 1) [Example 350, 4-methoxy-2,3-dimethyl-7-[3-(naphthalen-1-yloxy)propyl]-2,10,11,12,13,15-hexahydropyrazolo[4′,3′:9,10][1,6]oxazacycloundecino[8,7,6-hi]indole-8-carboxylic acid-N-ethylethanamine Salt (Enantiomer 1)] | 0.0563 µM |  | 1.53e-05 M | > 3.3e-05 M | > 33 µM |  |  |  | > 33 µM | 3.11e-05 M | > 3.3e-05 M | 1.38e-05 M | 24.3 µM | 2.07e-05 M |  |  |  | 
4 | COc1ccc2c(CCCOc3cccc4ccccc34)c(C(=O)O)n3c2c1-c1c(C)nn(C)c1COCCCC3 (single isomer, unassigned; enantiomer 1) [Example 352, 4-methoxy-1,3-dimethyl-7-[3-(naphthalen-1-yloxy)propyl]-1,10,11,12,13,15-hexahydropyrazolo[4′,3′:9,10][1,6]oxazacycloundecino[8,7,6-hi]indole-8-carboxylic Acid Ammonium Salt (Enantiomer 1)] | 0.0454 µM |  | 1.05e-05 M |  |  |  |  |  | > 33 µM | > 3.3e-05 M | > 3.3e-05 M | 1.19e-05 M | > 33 µM | > 3.3e-05 M |  |  |  | 
5 | Cc1ccc2c(CCCOc3cccc4ccccc34)c(C(=O)O)n3c2c1-c1c(C)nn(C)c1COCCC3 (single isomer, unassigned; enantiomer 2) [Example 026, (−)-9,11,12-trimethyl-1-[3-(naphthalen-1-yloxy)propyl]-5,6,8,9-tetrahydro-4H-pyrazolo[4′,3′:8,9][1,5]oxazecino[7,6,5-hi]indole-2-carboxylic acid-N-ethylethanamine Salt (Enantiomer 2)] | 0.0234 µM | 20.2 µM |  |  | 23.8 µM | 1.97e-05 M |  |  |  |  |  |  |  |  | 1.14e-05 M | 2.58e-05 M | 8.59e-06 M | 2.41e-05 M
6 | Cn1nc2c(c1CN1CCOCC1)-c1cccc3c(CCCOc4cccc5ccccc45)c(C(=O)O)n(c13)CCCCOC2 (single isomer, unassigned; enantiomer 2) [Example 080, 2-methyl-3-(morpholin-4-ylmethyl)-7-[3-(naphthalen-1-yloxy)propyl]-2,10,11,12,13,15-hexahydropyrazolo[4′3′:9,10][1,6]oxazacycloundecino[8,7,6-hi]indole-8-carboxylic acid-N-ethylethanamine Salt (Enantiomer 2)] | 0.0312 µM | > 33 µM | 1.21e-05 M |  | > 33 µM | 2.41e-05 M |  |  |  |  |  |  |  |  |  | > 3.3e-05 M | 1.56e-05 M | > 3.3e-05 M
7 | COCCn1nc(C2CC2)c2c1COCCCCn1c(C(=O)O)c(CCCOc3cccc4c3CCCC4)c3cccc-2c31 (single isomer, unassigned; enantiomer 2) [Example 166, 3-Cyclopropyl-1-(2-methoxyethyl)-7-[3-(5,6,7,8-tetrahydronaphthalen-1-yloxy)propyl]-1,10,11,12,13,15-hexahydropyrazolo[4′,3′:9,10][1,6]oxazacycloundecino[8,7,6-hi]indole-8-carboxylic acid-N-ethylethanamine Salt (Enantiomer 2)] | 0.041 µM | > 33 µM | 1.88e-05 M |  | 30.7 µM | 2.82e-05 M |  |  |  |  |  |  |  |  |  | > 3.3e-05 M | 1.26e-05 M | 2.81e-05 M
8 | COCc1nn(C)c2c1-c1cccc3c(CCCOc4cccc5ccccc45)c(C(=O)O)n(c13)CCCCCOC2 (single isomer, unassigned; enantiomer 2) [Example 179, 3-(methoxymethyl)-1-methyl-7-[3-(naphthalen-1-yloxy)propyl]-1,11,12,13,14,16-hexahydro-10H-pyrazolo[3′,4′:3,4][1,7]oxazacyclododecino[5,6,7-hi]indole-8-carboxylic acid-N-ethylethanamine Salt (Enantiomer 2)] | 0.00943 µM | 26.9 µM |  |  | 11.9 µM | > 3.3e-05 M |  |  |  |  |  |  |  |  | 9.83e-06 M | > 3.3e-05 M and 3.15e-05 M | 1.48e-05 M | 1.22e-05 M
9 | CCc1c2c(nn1CCN1CCOCC1)COCCCCn1c(C(=O)O)c(CCCOc3cccc4ccccc34)c3ccc(C)c-2c31 (single isomer, unassigned; enantiomer 2) [Example 206, 3-ethyl-4-methy-2-[2-(morpholin-4-yl)ethyl]-7-[3-(naphthalen-1-yloxy)propyl]-2,10,11,1213,15-hexahydropyrazolo[4′3′:9,10][1,6]oxazacycloundecino[8,7,6-hi]indole-carboxylic Acid (Enantiomer 2)] | 0.0155 µM | 17.5 µM | 1.92e-05 M |  | 13.1 µM | 2.28e-05 M |  |  |  |  |  |  |  |  |  | 1.6e-05 M | 1.03e-05 M | 1.4e-05 M
10 | Cc1c2c(nn1C)COCCCCn1c(C(=O)O)c(CCCOc3cccc4cc(F)ccc34)c3cccc-2c31 (single isomer, unassigned; enantiomer 2) [Example 302, (+)-7-{3-[(6-fluoronaphthalen-1-yl)oxy]propyl}-2,3-dimethyl-2,10,11,12,13,15-hexahydropyrazolo[4′,3′:9,10][1,6]oxazacycloundecino[8,7,6-hi]indole-8-carboxylic Acid (Enantiomer 2)] | 0.00126 µM | 4.2 µM | 4.78e-06 M | 3.49e-06 M | 0.674 µM |  | 1.99e-06 M | 1.05e-06 M |  |  | 2.25e-05 M |  |  |  |  |  |  | 
